Structures can show the parent of a compound that is named as a salt. Where two headings read alike, the source gives them in different places.

Holding throughout (type): physicochemical
Series [1] in a line: Extractive distillation agent separating methyl t-butyl ether from 1-pentene (vapor-liquid equilibrium still).
A short description of series [2]: Extractive distillation agent separating methyl t-butyl ether from n-pentane-cyclopentane mixtures (vapor-liquid equilibrium still).
The nature of series [3]: Extractive distillation agent separating methyl t-butyl ether from cyclopentane (vapor-liquid equilibrium still). Particulars: cyclopentane to methyl t-butyl ether, with agent. From the text: The data in Tables 2-6 was obtained in a vapor-liquid equilibrium still.
Series [4] is described as follows: Relative volatility of methyl t-butyl ether from close boiling hydrocarbons, no agent (vapor-liquid equilibrium still). Particulars: hydrocarbon to methyl t-butyl ether. From the text:
I have discovered that certain organic compounds will effectively increase the relative volatility between methyl t-butyl ether and close boiling hydrocarbons when employed as the agent in extractive distillation. The data in Tables 2-6 was obtained in a vapor-liquid equilibrium still.

[5] abbreviates: 1-pentene to methyl t-butyl ether, with agent.
Where [6] appears, read: cyclopentane to methyl t-butyl ether, n-pentane-cyclopentane mixture, with agent.
Where [7] appears, read: n-pentane to methyl t-butyl ether, n-pentane-cyclopentane mixture, with agent.

In the case of `COCC(C)OC(C)=O` (stereo not shown) [1-Methoxy-2-propanol acetate], the “Relative Volatility” value in series [1] (setting [5]) amounted to 3.5. For the same compound, the “Relative Volatility CyP/MTBE” value in series [2] (setting [6]) is listed as 1.9. For the same compound, the “Relative Volatility Pnt/MTBE” value in series [2] (setting [7]) came to 3.3.
Consider `CN1CCCC1=O` [1-Methyl-2-pyrrolidinone], for which the “Relative Volatility” value in series [3] was found to be 1.8. The “Relative Volatility CyP/MTBE” value in series [2] (setting [6]) came to 1.8. Further, the “Relative Volatility Pnt/MTBE” value in series [2] (setting [7]) worked out at 3.9.
Consider `CCC[N+](=O)[O-]` [1-Nitropropane], for which the “Relative Volatility CyP/MTBE” value in series [2] (setting [6]) is 2.8. In addition, the “Relative Volatility Pnt/MTBE” value in series [2] (setting [7]) was determined as 5.2.
Consider `C=CCCC` [1-Pentene], for which the entries for the “Relative Volatility” value in series [4] and in series [4] (listed as 1-pentene) were 1.7 and “less than 1.7”, respectively.
As for `CC(=O)CC(C)=O` [2,4-Pentanedione], the “Relative Volatility CyP/MTBE” value in series [2] (setting [6]) is reported as 1.9. Besides, in series [2] (setting [7]), the “Relative Volatility Pnt/MTBE” value was found to be 3.4.
Take `CC(C)[N+](=O)[O-]` [2-Nitropropane]: in series [2] (setting [6]), the “Relative Volatility CyP/MTBE” value is 2.2. In addition, the “Relative Volatility Pnt/MTBE” value in series [2] (setting [7]) worked out at 3.8.
Regarding `CC(=O)c1ccccc1` [Acetophenone], the “Relative Volatility” value in series [3] was found to be 1.6. Besides, the “Relative Volatility CyP/MTBE” value in series [2] (setting [6]) is 1.7. Also, the “Relative Volatility Pnt/MTBE” value in series [2] (setting [7]) is 1.7.
As for `C1CCCC1` [Cyclopentane], the results for the “Relative Volatility” value in series [4] and in series [4] (listed as cyclopentane) were 1.55 and “less than 1.7”, respectively.
As to `CCOC(=O)OCC` [Diethyl carbonate], the “Relative Volatility CyP/MTBE” value in series [2] (setting [6]) was determined as 1.8. The “Relative Volatility Pnt/MTBE” value in series [2] (setting [7]) is given as 3.1.
For `CCOC(=O)/C=C\C(=O)OCC` [Diethyl maleate], in series [2] (setting [6]), the “Relative Volatility CyP/MTBE” value is recorded as 1.8. Besides, the “Relative Volatility Pnt/MTBE” value in series [2] (setting [7]) stood at 3.4.
Turning to `CCOC(=O)CC(=O)OCC` [Diethyl malonate], the “Relative Volatility” value in series [1] (setting [5]) amounted to 3.1. Moreover, the “Relative Volatility CyP/MTBE” value in series [2] (setting [6]) is recorded as 2.0. Also, the “Relative Volatility Pnt/MTBE” value in series [2] (setting [7]) is recorded as 3.7.
On to `CC(C)CC(=O)CC(C)C` [Diisobutyl ketone], for which the “Relative Volatility CyP/MTBE” value in series [2] (setting [6]) is 1.5. Also, in series [2] (setting [7]), the “Relative Volatility Pnt/MTBE” value is 2.5.
As for `CN(C)C=O` [Dimethylformamide], the “Relative Volatility” value in series [3] was found to be 2.0; in series [1], 3.0. Also, the “Relative Volatility CyP/MTBE” value in series [2] is recorded as 2.3. Also, the “Relative Volatility Pnt/MTBE” value in series [2] is given as 4.7.
For `C[S+](C)[O-]` [Dimethylsulfoxide], the “Relative Volatility” value in series [3] is 1.8; in series [1] (setting [5]) it was 3.9. Besides, the “Relative Volatility CyP/MTBE” value in series [2] (setting [6]) is 2.7. Also, in series [2] (setting [7]), the “Relative Volatility Pnt/MTBE” value was found to be 2.8.
As to `CCOC(C)=O` [Ethyl acetate], the “Relative Volatility CyP/MTBE” value in series [2] (setting [6]) is on record as 1.8. The “Relative Volatility Pnt/MTBE” value in series [2] (setting [7]) turned out to be 2.9.
On to `CCOC(=O)CC(C)=O` [Ethyl acetoacetate], for which the “Relative Volatility CyP/MTBE” value in series [2] (setting [6]) is 1.9. Further, the “Relative Volatility Pnt/MTBE” value in series [2] (setting [7]) is 4.2.
With `CCOC(=O)CC(C)C` [Ethyl isovalerate], the “Relative Volatility CyP/MTBE” value in series [2] (setting [6]) is recorded as 1.5. For the same compound, the “Relative Volatility Pnt/MTBE” value in series [2] (setting [7]) came to 2.5.
For the compound `CC(=O)OCCOC(C)=O` [Ethylene glycol diacetate], the “Relative Volatility” value in series [1] (setting [5]) was determined as 5.5. Further, the “Relative Volatility CyP/MTBE” value in series [2] (setting [6]) is on record as 1.8. Besides, the “Relative Volatility Pnt/MTBE” value in series [2] (setting [7]) is reported as 3.3.
For `COCCO` [Ethylene glycol methyl ether], in series [1], the “Relative Volatility” value turned out to be 3.6.
`CC1=CC(=O)CC(C)(C)C1` [Isophorone]: in series [2] (setting [6]), the “Relative Volatility CyP/MTBE” value worked out at 1.5. The “Relative Volatility Pnt/MTBE” value in series [2] (setting [7]) stood at 2.8.
Regarding `CC(=O)OC(C)C` [Isopropyl acetate], in series [2] (setting [6]), the “Relative Volatility CyP/MTBE” value is listed as 1.8. Besides, the “Relative Volatility Pnt/MTBE” value in series [2] (setting [7]) is recorded as 3.1.
For `CC(=O)CCC(C)C` [Methyl isoamyl ketone], the “Relative Volatility” value in series [1] (setting [5]) was 2.6. Also, in series [2] (setting [6]), the “Relative Volatility CyP/MTBE” value worked out at 1.7. Besides, in series [2] (setting [7]), the “Relative Volatility Pnt/MTBE” value is reported as 2.8.
Regarding `COC(=O)c1ccccc1O` [Methyl salicylate], the “Relative Volatility CyP/MTBE” value in series [2] (setting [6]) turned out to be 1.6. Further, in series [2] (setting [7]), the “Relative Volatility Pnt/MTBE” value stood at 1.9.
On to `CC[N+](=O)[O-]` [Nitroethane], for which the “Relative Volatility” value in series [1] came out at 3.0. Moreover, in series [2], the “Relative Volatility CyP/MTBE” value is reported as 2.9 and the “Relative Volatility Pnt/MTBE” value stood at 5.2.
Consider `C[N+](=O)[O-]` [Nitromethane], for which, in series [2], the “Relative Volatility CyP/MTBE” value is reported as 1.6 and the “Relative Volatility Pnt/MTBE” value amounted to 1.5.
For `CC(O)COc1ccccc1` (stereo not shown) [Propylene glycol phenyl ether], the “Relative Volatility” value in series [1] (setting [5]) was 3.2. Further, the “Relative Volatility CyP/MTBE” value in series [2] (setting [6]) stood at 2.0. Moreover, in series [2] (setting [7]), the “Relative Volatility Pnt/MTBE” value came out at 4.2.
Regarding `O=S1(=O)CCCC1` [Sulfolane], the figures for the “Relative Volatility” value in series [3] and in series [1] were 3.6 and 4.4, respectively. Moreover, the “Relative Volatility CyP/MTBE” value in series [2] (setting [6]) is 3.6. Moreover, the “Relative Volatility Pnt/MTBE” value in series [2] (setting [7]) was 2.4.
With `CC(=O)OCC(COC(C)=O)OC(C)=O` [Triacetin], the “Relative Volatility CyP/MTBE” value in series [2] (setting [6]) turned out to be 1.9. For the same compound, the “Relative Volatility Pnt/MTBE” value in series [2] (setting [7]) amounted to 3.6.
As to `CCCCCCOC=O` [n-Hexyl formate], the “Relative Volatility CyP/MTBE” value in series [2] (setting [6]) came to 1.6. Further, the “Relative Volatility Pnt/MTBE” value in series [2] (setting [7]) was found to be 1.6.
As to `CCCCC` [n-Pentane], the “Relative Volatility” value was 1.6 in series [4] and “less than 1.7” in series [4] (listed as n-pentane).
On to `CCCOC(C)=O` [n-Propyl acetate], for which the “Relative Volatility CyP/MTBE” value in series [2] (setting [6]) was found to be 1.8. The “Relative Volatility Pnt/MTBE” value in series [2] (setting [7]) is 2.6.
For `CC(C)(C)O` [t-Butanol], in series [3], the “Relative Volatility” value is recorded as 2.2.

Source of the values: patent publication US5228957A, “Separation of methyl T-butyl ether from close boiling C5 hydrocarbons by extractive distillation” (priority 1993, dated 1993).
